# Results: ChEMBL document CHEMBL1143983, “A photoswitchable ITAM peptidomimetic: synthesis and real time surface plasmon resonance (SPR) analysis of the effects of cis-trans isomerization on binding” (Bioorg Med Chem, 2008)
# Target: Tyrosine-protein kinase SYK (Homo sapiens, UniProt P43405)
# Assay: Binding affinity to Syk tSH2 domain by SPR binding assay
smiles,measurement,value
CC(=O)N[C@@H](Cc1ccc(OP(=O)(O)O)cc1)C(=O)N[C@H](C(=O)NCC(=O)N[C@@H](CC(C)C)C(=O)NCC(=O)NCc1ccc(/N=N/c2ccc(C(=O)NCC(=O)N[C@@H](Cc3ccc(OP(=O)(O)O)cc3)C(=O)N[C@@H](CCC(=O)O)C(=O)N[C@H](C(=O)N[C@@H](CC(C)C)C(N)=O)[C@H](C)O)cc2)cc1)[C@H](C)O,Kd,65 nM
